The text below walks through data of US20220370416A1, “COMPOUNDS AND METHODS FOR TARGETED DEGRADATION OF KRAS” (Arvinas Operations, Inc., priority 2020, published 2022).

In assay [1] the target is T1, HiBit-KRAS^G12C (Homo sapiens, UniProt P01116, G12C). The assay can be described thus: HiBit degradation assay in MiaPaCa-2 HiBit-KRas^G12C cells. It is filed as cell-based. The settings on record: 0.5% DMSO, 24 hours; for Dmax: maximum degradation; for DC50: read-out: KRas^G12C-HiBiT (MiaPaCa; 0.5% DMSO) IC50. In short, it runs like this: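 DC50 and Dmax come from 4-parameter fits of DMSO-normalized HiBit luminescence after 24 hours' exposure at 37° C to 10 μM–20 nM compound in 0.1% or 0.5% DMSO. Cells: MiaPaCa-2 carrying one endogenously HiBit-tagged KRAS^G12C allele; concentrations causing ≥50% […] viability loss (alamar blue) excluded.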
T1 sequence (P01116 1-186 isoform P01116-2 G12C limits assumed): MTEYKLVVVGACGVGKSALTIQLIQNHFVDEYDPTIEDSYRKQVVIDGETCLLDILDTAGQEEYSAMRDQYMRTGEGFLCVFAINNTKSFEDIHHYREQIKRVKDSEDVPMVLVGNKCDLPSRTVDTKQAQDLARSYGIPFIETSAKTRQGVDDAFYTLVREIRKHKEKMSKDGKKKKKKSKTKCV

For assay [2], the target named is T1, HiBit-KRAS^G12C. Nature of the assay: HiBit degradation assay in SW1573 HiBit-KRas^G12C cells. It is filed as cell-based. The arrangement: expressed in transfected cells; host or cells: SW1573 (clone E6), modified pcDNA3.1 vector, TK promoter. The settings on record: 0.5% DMSO, 24 hours; for DC50: read-out: KRas^G12C-HiBiT (SW1573; 0.5% DMSO) IC50***. In short, it runs like this: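 HiBit-KRAS G12C degradation was measured after a 24 h compound exposure (titrated 10 μM–20 nM) in engineered SW1573 cells. Lytic HiBit luminescence, expressed relative to DMSO controls, yielded DC50 and Dmax from 4-parameter fits. Concentrations causing ≥50% loss in alamar blue viability were omitted as cytotoxic.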

Setting [3] is: MiaPaCa-2 HiBit-KRas^G12C cells.
[4] abbreviates: MIA PaCa-2, MiaPaCa-2 HiBit-KRas^G12C cells, read-out: KRas^G12C-HiBiT (MiaPaCa; 0.5% DMSO) DMax.
[5] abbreviates: SW1573, SW1573 HiBit-KRas^G12C, read-out: KRas^G12C-HiBiT (SW1573; 0.5% DMSO) Dmax**.

The structures appear in SMILES notation.

For `C=CC(=O)N1CCN(c2nc(OCCN3CCC(F)(CN(C)CC(=O)N[C@H](C(=O)N4C[C@H](O)C[C@H]4C(=O)N[C@@H](C)c4ccc(-c5scnc5C)cc4)C(C)(C)C)CC3)nc3c(F)c(-c4cc(O)cc5ccccc45)c(Cl)cc23)C[C@@H]1CC#N` [Compound 120, (2S,4R)-1-[(2S)-2-{2-[({1-[2-({6-chloro-4-[(3S)-3-(cyanomethyl)-4-(prop-2-enoyl)piperazin-1-yl]-8-fluoro-7-(3-hydroxynaphthalen-1-yl)quinazolin-2-yl}oxy)ethyl]-4-fluoropiperidin-4-yl}methyl)(methyl)amino]acetamido}-3,3-dimethylbutanoyl]-4-hydroxy-N-[(1S)-1-[4-(4-methyl-1,3-thiazol-5-yl)phenyl]ethyl]pyrrolidine-2-carboxamide], the Dmax lay in the range of 35 to 70% at HiBit-KRAS^G12C [1] (MIA PaCa-2, read-out: KRas^G12C-HiBiT (MiaPaCa; 0.5% DMSO) DMax, MiaPaCa-2 HiBit-KRas^G12C cells) and 35 to 70% on HiBit-KRAS^G12C [2] (SW1573, read-out: KRas^G12C-HiBiT (SW1573; 0.5% DMSO) Dmax**, SW1573 HiBit-KRas^G12C). Besides, the DC50 at HiBit-KRAS^G12C [1] (setting [3]) and at HiBit-KRAS^G12C [2] (SW1573 HiBit-KRas^G12C) was 100 to 1000 nM throughout.

In the case of `C=CC(=O)N1CCN(c2nc(O[C@H]3CCC[C@@H]3N3CCC(COCC(=O)N[C@H](C(=O)N4C[C@H](O)C[C@H]4C(=O)N[C@@H](C)c4ccc(-c5scnc5C)cc4)C(C)(C)C)CC3)nc3c(F)c(-c4cc(O)cc5ccccc45)c(Cl)cc23)C[C@@H]1CC#N` [Compound 127, (2S,4R)-1-[(2S)-2-[2-({1-[(1S,2S)-2-({6-chloro-4-[(3S)-3-(cyanomethyl)-4-(prop-2-enoyl)piperazin-1-yl]-8-fluoro-7-(3-hydroxynaphthalen-1-yl)quinazolin-2-yl}oxy)cyclopentyl]piperidin-4-yl}methoxy)acetamido]-3,3-dimethylbutanoyl]-4-hydroxy-N-[(1S)-1-[4-(4-methyl-1,3-thiazol-5-yl)phenyl]ethyl]pyrrolidine-2-carboxamide], the Dmax at HiBit-KRAS^G12C [1] (setting [4]) and at HiBit-KRAS^G12C [2] (setting [5]) was 35 to 70% throughout. The DC50 at HiBit-KRAS^G12C [1] (setting [3]) and on HiBit-KRAS^G12C [2] (SW1573 HiBit-KRas^G12C) was 100 to 1000 nM each time.

On to `C=CC(=O)N1CCN(c2nc(OCCN3CCC(COCC(=O)N[C@H](C(=O)N4C[C@H](O)C[C@H]4C(=O)N[C@@H](C)c4ccc(-c5scnc5C)cc4)C(C)(C)C)CC3)nc3c(F)c(-c4c(C)ccc5[nH]ncc45)c(Cl)cc23)C[C@@H]1CC#N` [Compound 128, (2S,4R)-1-[(2S)-2-[2-({1-[2-({6-chloro-4-[(3S)-3-(cyanomethyl)-4-(prop-2-enoyl)piperazin-1-yl]-8-fluoro-7-(5-methyl-1H-indazol-4-yl)quinazolin-2-yl}oxy)ethyl]piperidin-4-yl}methoxy)acetamido]-3,3-dimethylbutanoyl]-4-hydroxy-N-[(1S)-1-[4-(4-methyl-1,3-thiazol-5-yl)phenyl]ethyl]pyrrolidine-2-carboxamide], for which the Dmax on HiBit-KRAS^G12C [1] (setting [4]) was 35 to 70%; at HiBit-KRAS^G12C [2] (setting [5]), > 70%. Besides, the DC50 on HiBit-KRAS^G12C [1] (setting [3]) and at HiBit-KRAS^G12C [2] (SW1573 HiBit-KRas^G12C) was 100 to 1000 nM each time.

Regarding `C=CC(=O)N1CCN(c2nc(O[C@@H]3CCC[C@H]3N3CCC(COCC(=O)N[C@H](C(=O)N4C[C@H](O)C[C@H]4C(=O)N[C@@H](C)c4ccc(-c5scnc5C)cc4)C(C)(C)C)CC3)nc3c(F)c(-c4cc(O)cc5ccccc45)c(Cl)cc23)C[C@@H]1CC#N` [Compound 130, (2S,4R)-1-[(2S)-2-[2-({1-[(1R,2R)-2-({6-chloro-4-[(3S)-3-(cyanomethyl)-4-(prop-2-enoyl)piperazin-1-yl]-8-fluoro-7-(3-hydroxynaphthalen-1-yl)quinazolin-2-yl}oxy)cyclopentyl]piperidin-4-yl}methoxy)acetamido]-3,3-dimethylbutanoyl]-4-hydroxy-N-[(1S)-1-[4-(4-methyl-1,3-thiazol-5-yl)phenyl]ethyl]pyrrolidine-2-carboxamide], the Dmax at HiBit-KRAS^G12C [1] (setting [4]) is 35 to 70%; on HiBit-KRAS^G12C [2] (setting [5]) it was > 70%. Moreover, the DC50 on HiBit-KRAS^G12C [1] (setting [3]) and at HiBit-KRAS^G12C [2] (SW1573 HiBit-KRas^G12C) was 100 to 1000 nM each time.

`C=CC(=O)N1CCN(c2nc(OCCN3CCC(C)(COc4cc([C@H](C(=O)N5C[C@H](O)C[C@H]5C(=O)N[C@@H](C)c5ccc(-c6scnc6C)cc5)C(C)C)on4)CC3)nc3c(F)c(-c4cc(O)cc5ccccc45)c(Cl)cc23)C[C@@H]1CC#N` [Compound 131, (2S,4R)-1-[(2R)-2-[3-({1-[2-({6-chloro-4-[(3S)-3-(cyanomethyl)-4-(prop-2-enoyl)piperazin-1-yl]-8-fluoro-7-(3-hydroxynaphthalen-1-yl)quinazolin-2-yl}oxy)ethyl]-4-methylpiperidin-4-yl}methoxy)-1,2-oxazol-5-yl]-3-methylbutanoyl]-4-hydroxy-N-[(1S)-1-[4-(4-methyl-1,3-thiazol-5-yl)phenyl]ethyl]pyrrolidine-2-carboxamide]: the Dmax at HiBit-KRAS^G12C [1] (setting [4]) and at HiBit-KRAS^G12C [2] (setting [5]) was > 70% in each case. Besides, the DC50 is 100 to 1000 nM on HiBit-KRAS^G12C [1] (setting [3]) and < 100 nM at HiBit-KRAS^G12C [2] (SW1573 HiBit-KRas^G12C).

In the case of `C=CC(=O)N1CCN(c2nc(OCCN3CCC(C)(COc4cc([C@@H](C(=O)N5C[C@H](O)C[C@H]5C(=O)N[C@@H](C)c5ccc(-c6scnc6C)cc5)C(C)C)on4)CC3)nc3c(F)c(-c4cc(O)cc5ccccc45)c(Cl)cc23)C[C@@H]1CC#N` [Compound 132, (2S,4R)-1-[(2S)-2-[3-({1-[2-({6-chloro-4-[(3S)-3-(cyanomethyl)-4-(prop-2-enoyl)piperazin-1-yl]-8-fluoro-7-(3-hydroxynaphthalen-1-yl)quinazolin-2-yl}oxy)ethyl]-4-methylpiperidin-4-yl}methoxy)-1,2-oxazol-5-yl]-3-methylbutanoyl]-4-hydroxy-N-[(1S)-1-[4-(4-methyl-1,3-thiazol-5-yl)phenyl]ethyl]pyrrolidine-2-carboxamide], the DC50 at HiBit-KRAS^G12C [1] (setting [3]) and on HiBit-KRAS^G12C [2] (SW1573 HiBit-KRas^G12C) was > 1000 nM throughout.

Turning to `C=CC(=O)N1CCN(c2nc(OCCN3CCC(F)(COc4cc([C@H](C(=O)N5C[C@H](O)C[C@H]5C(=O)N[C@@H](C)c5ccc(-c6scnc6C)cc5)C(C)C)on4)CC3)nc3c(F)c(-c4cc(O)cc5ccccc45)c(Cl)cc23)C[C@@H]1CC#N` [Compound 133, (2S,4R)-1-[(2R)-2-[3-({1-[2-({6-chloro-4-[(3S)-3-(cyanomethyl)-4-(prop-2-enoyl)piperazin-1-yl]-8-fluoro-7-(3-hydroxynaphthalen-1-yl)quinazolin-2-yl}oxy)ethyl]-4-fluoropiperidin-4-yl}methoxy)-1,2-oxazol-5-yl]-3-methylbutanoyl]-4-hydroxy-N-[(1S)-1-[4-(4-methyl-1,3-thiazol-5-yl)phenyl]ethyl]pyrrolidine-2-carboxamide], the Dmax at HiBit-KRAS^G12C [1] (setting [4]) and on HiBit-KRAS^G12C [2] (setting [5]) was > 70% each time. Moreover, the DC50 on HiBit-KRAS^G12C [1] (setting [3]) was 100 to 1000 nM; at HiBit-KRAS^G12C [2] (SW1573 HiBit-KRas^G12C) it was < 100 nM.

As to `C=CC(=O)N1CCN(c2nc(OCCN3CCC(F)(COc4cc([C@@H](C(=O)N5C[C@H](O)C[C@H]5C(=O)N[C@@H](C)c5ccc(-c6scnc6C)cc5)C(C)C)on4)CC3)nc3c(F)c(-c4cc(O)cc5ccccc45)c(Cl)cc23)C[C@@H]1CC#N` [Compound 134, (2S,4R)-1-[(2S)-2-[3-({1-[2-({6-chloro-4-[(3S)-3-(cyanomethyl)-4-(prop-2-enoyl)piperazin-1-yl]-8-fluoro-7-(3-hydroxynaphthalen-1-yl)quinazolin-2-yl}oxy)ethyl]-4-fluoropiperidin-4-yl}methoxy)-1,2-oxazol-5-yl]-3-methylbutanoyl]-4-hydroxy-N-[(1S)-1-[4-(4-methyl-1,3-thiazol-5-yl)phenyl]ethyl]pyrrolidine-2-carboxamide], the DC50 at HiBit-KRAS^G12C [1] (setting [3]) and on HiBit-KRAS^G12C [2] (SW1573 HiBit-KRas^G12C) was > 1000 nM each time.
